Measurements published in ChEMBL document CHEMBL5726080, “Substituted piperidine compounds and their use as orexin receptor modulators” (2017).

Assay: Receptor Radioligand Binding Studies: Human Embryonic Kidney 293 cells (HEK293) stably expressing rat orexin 1 receptor (Genebank accession number NM_001525) or Chinese ovary cells (CHO) stably expressing […] were grown to confluency in DMEM (Hyclone, cat #SH30022), 10% FBS, 1×Pen/Strep, 1× sodium pyruvate, 10 mM HEPES, 600 μg/mL G418 and DMEM/F12 (Gibco, Cat #11039), 10% FBS, 1×Pen/Strep, 600 μg/mL G418 media, respectively on 150 cm2 tissue culture plates, washed with 5 mM EDTA in PBS (HyClone Dulbecco's Phosphate Buffered Saline 1× with Calcium and Magnesium, Cat #SH30264.01, hereafter referred to simply as PBS) and scraped into 50 ml tubes. After centrifugation (2K×G, 5 min at 4° C.), the supernatant was aspirated and the pellets frozen and stored at −80° C. Cells were resuspended in PBS in the presence of 1 tablet of protease inhibitor cocktail (Roche, Cat. #11836145001) per 50 mL. Each cell pellet from a 15 cm plate was resuspended in 10 mL, stored on ice, and homogenized for 45 sec prior to addition to the reactions. Competition binding experiments in 96 well polypropylene plates were performed using [3H]-(1-(5-(2-fluoro-phenyl)-2-methyl-thiazol-4-yl)-1-((S)-2-(5-phenyl-(1,3,4)oxadiazol-2-ylmethyl)-pyrrolidin-1-yl)-methanone) (Moraveck Corporation, specific activity=35.3 Ci/mmol), diluted to a 10 nM concentration in PBS (4 nM final). Compounds were solubilized in 100% DMSO (Acros Organics, Cat. #61042-1000) and tested over a range of 7 concentrations (from 0.1 nM to 10 μM). The final concentration of DMSO in the reactions is equal to or less than 0.1%. Total and nonspecific binding was determined in the absence and presence of 10 μM almorexant. The total volume of each reaction is 200 μL (20 μL of diluted compounds, 80 μL of [3H]-(1-(5-(2-fluoro-phenyl)-2-methyl-thiazol-4-yl)-1-((S)-2-(5-phenyl-(1,3,4)oxadiazol-2-ylmethyl)-pyrrolidin-1-yl)-methanone) diluted in PBS and 100 μL of the cell suspension). Reactions were run for 60 min at room temperature and terminated by filtration through GF/C filter plates (PerkinElmer, Cat. #6005174) presoaked in 0.3% polyethylenimine using the cell harvester (PerkinElmer Filtermate). The plates were washed 3 times by aspirating 30 ml PBS through the plates. Plates were dried in 55° C. oven for 60 min, scintillation fluid was added, and the radioactivity was counted on a Topcount (Packard).

| SMILES | Ki |
| --- | --- |
| Cc1ccc(C(=O)N2CCC[C@@H](Nc3nnc(C(F)(F)F)s3)[C@@H]2C)c(-n2nccn2)n1 (relative stereo) | > 10 µM |
| COc1ccc(C(=O)N2CCC[C@@H](Nc3ccc(C(F)(F)F)cn3)[C@@H]2C)c(Cl)n1 (relative stereo) | > 10 µM |
| Cc1ccc(C(=O)N2CCC[C@@H](N(C)c3ccc(C(F)(F)F)cn3)[C@@H]2C)c(-n2nccn2)n1 (relative stereo) | > 10 µM |
| COc1ccc(C(=O)N2CCC[C@@H](Nc3ncc(C(F)(F)F)cn3)[C@@H]2C)c(Cl)n1 (relative stereo) | > 10 µM |
